# Assay results published in paper PMC9080489, “Synthesis and biological evaluation of 2-aryl-benzimidazole derivatives of dehydroabietic acid as novel tubulin polymerization inhibitors” (RSC Advances, 2018).
# Like-named read-outs stand apart in the source and are kept apart here.
# Legend:
# [1] = test system: human cervical carcinoma cell line (HeLa); test: MTT cytotoxic assay, HeLa; assay type: cell-based; conditions: read-out: IC50 HeLa
# Method: (§1) The in vitro antiproliferative activity of DAA derivatives (1–5, 6a–k, 7a–k) were evaluated by MTT assay against human hepatocarcinoma cell line (SMMC-7721), human breast cancer cell line (MDA-MB-231), human cervical carcinoma cell line (HeLa), mouse colon cancer cell line (CT-26) and human normal hepatocyte cell line (QSG-7701). Nocodazole was co-assayed as the positive control and DMEM culture medium containing 0.1% DMSO was used as negative control. The results of the tested compounds expressed as IC50 values (concentration required to inhibit tumor cell proliferation by 50%) were presented in Table 1.
# (§2) The human hepatocarcinoma cell line (SMMC-7721), human breast cancer cell line (MDA-MB-231), human cervical carcinoma cell line (HeLa), mouse colon cancer cell line (CT-26) and human normal hepatocyte cells (QSG-7701) used in this study were all obtained from Keygene Biotech., China. These cell lines were maintained in DMEM medium supplemented with 10% heat-inactivated fetal bovine serum in a humidified atmosphere of 5% CO2 at 37 °C.
# (§3) The in vitro cytotoxic activities of the benzimidazole derivatives of dehydroabietic acid were evaluated against tested cell lines via the MTT colorimetric method. Briefly, different tumor cells were grown in DMEM medium supplemented with 10% fetal bovine serum, penicillin (100 U mL^−1), and streptomycin (50 μg mL^−1). Cells were harvested at log phase of growth and seeded in 96-well plates (100 μL per well at a density of 2 × 10^5 cells mL^−1). After 24 h incubation at 37 °C and 5% CO2 to allow cell attachment, cultures were exposed to various concentrations of the isolated compounds for 48 h. Finally, MTT solution (2.5 mg mL^−1 in PBS) was added (40 μL per well). Plates were further incubated for 4 h at 37 °C, and the formazan crystals formed were dissolved by adding 150 μL per well of DMSO. Absorption at 570 nm was measured with an ELISA plate reader. The results were expressed as IC50 values with standard deviations, which was defined as the concentration at which 50% survival of cells was discerned. Nocodazole was co-assayed as positive control.
# [2] = test system: mouse colon cancer cell line (CT-26); test: MTT cytotoxic assay, CT-26; assay type: cell-based; conditions: Mus musculus, CT26, 48 h, read-out: IC50 CT-26
# Method: as §1, §2, §3
# [3] = test system: human breast cancer cell line (MDA-MB-231); test: MTT cytotoxic assay, MDA-MB-231; assay type: cell-based; conditions: read-out: IC50 MDA-MB-231
# Method: as §1, §2, §3
# [4] = test system: human hepatocarcinoma cell line (SMMC-7721); test: MTT cytotoxic assay, SMMC-7721; assay type: cell-based; conditions: Homo sapiens, SMMC-7721, 48 h, read-out: IC50 SMMC-7721
# Method: as §1, §2, §3
# [5] = test system: human normal hepatocyte cell line (QSG-7701); test: MTT cytotoxic assay, QSG-7701; assay type: cell-based; conditions: QSG7701, 48 h exposure
# Method: as §1, §2, §3
compound,measurement,setting,value
"COC(=O)[C@]1(C)CCC[C@]2(C)c3cc(Br)c([N+](=O)[O-])c([N+](=O)[O-])c3CCC12 (stereo partly drawn) [Compound 4, methyl 12-bromo-13,14-dinitro-deisopropyldehydroabietate]",IC50,[1]; 48 h,> 50 µM
same,IC50,[2],35.1 ± 3.87 µM
same,IC50,"[3]; MDA-MB-231, 48 h",38.8 ± 2.15 µM
same,IC50,[4],31.8 ± 3.22 µM
"COC(=O)[C@]1(C)CCC[C@]2(C)c3cc(-c4cc(OC)c(OC)c(OC)c4)c4nc(-c5ccc(OC)cc5)[nH]c4c3CCC12 (stereo partly drawn) [Compound 7i, Methyl 2′-(4-methoxyphenyl)-12-(3,4,5-trimethoxyphenyl)-13,14-imidazolyl-deisopropyl-dehydroabietate]",IC50,"[1]; MTT, 48 h exposure",> 50 µM
same,IC50,"[2]; MTT, 48 h exposure",23.5 ± 2.38 µM
same,IC50,"[3]; MDA-MB-231, MTT, 48 h exposure",> 50 µM
same,melting point,,153 to 155 °C
same,IC50,"[4]; MTT, 48 h exposure",> 50 µM
COC(=O)[C@]1(C)CCC[C@]2(C)c3ccc(C(C)C)cc3CCC12 (stereo partly drawn) [Compound 2],IC50,"[1]; MTT, 48 h exposure",> 50 µM
same,IC50,"[2]; MTT, 48 h exposure",> 50 µM
same,IC50,"[3]; MDA-MB-231, MTT, 48 h exposure",> 50 µM
same,IC50,"[4]; MTT, 48 h exposure",> 50 µM
"COC(=O)[C@]1(C)CCC[C@]2(C)c3cc(Br)c4nc(-c5ccc(OC)cc5)[nH]c4c3CCC12 (stereo partly drawn) [Compound 6i, Methyl 2′-(4-methoxyphenyl)-12-bromo-13,14-imidazolyl-deisopropyl-dehydroabietate]",IC50,"[1]; MTT, 48 h exposure",> 50 µM
same,IC50,"[2]; MTT, 48 h exposure",21.2 ± 2.23 µM
same,IC50,"[3]; MDA-MB-231, MTT, 48 h exposure",> 50 µM
same,melting point,,140 to 142 °C
same,IC50,"[4]; MTT, 48 h exposure",> 50 µM
"COC(=O)[C@]1(C)CCC[C@]2(C)c3cc(Br)c4nc(-c5ccccc5Cl)[nH]c4c3CCC12 (stereo partly drawn) [Compound 6g, Methyl 2′-(2-chlorophenyl)-12-bromo-13,14-imidazolyl-deisopropyl-dehydroabietate]",IC50,"[1]; MTT, 48 h exposure",> 50 µM
same,IC50,"[2]; MTT, 48 h exposure",> 50 µM
same,IC50,"[3]; MDA-MB-231, MTT, 48 h exposure",19.2 ± 0.93 µM
same,melting point,,142 to 143 °C
same,IC50,"[4]; MTT, 48 h exposure",40.8 ± 3.32 µM
"COC(=O)[C@]1(C)CCC[C@]2(C)c3cc(-c4cc(OC)c(OC)c(OC)c4)c4nc(-c5ccccc5Cl)[nH]c4c3CCC12 (stereo partly drawn) [Compound 7g, Methyl 2′-(2-chlorophenyl)-12-(3,4,5-trimethoxyphenyl)-13,14-imidazolyl-deisopropyl-dehydroabietate]",IC50,"[1]; MTT, 48 h exposure",> 50 µM
same,IC50,"[2]; MTT, 48 h exposure",13.4 ± 2.35 µM
same,IC50,"[3]; MDA-MB-231, MTT, 48 h exposure",15.7 ± 0.87 µM
same,melting point,,157 to 159 °C
same,IC50,"[4]; MTT, 48 h exposure",> 50 µM
"COC(=O)[C@]1(C)CCC[C@]2(C)c3cc(-c4cc(OC)c(OC)c(OC)c4)c4nc(-c5c[nH]c6ccccc56)[nH]c4c3CCC12 (stereo partly drawn) [Compound 7k, Methyl 2′-(1H-indol-3-yl)-12-(3,4,5-trimethoxyphenyl)-13,14-imidazolyl-deisopropyl-dehydroabietate]",IC50,[5],11.8 ± 2.12 µM
same,IC50,"[1]; MTT, 48 h exposure",5.86 ± 0.63 µM
same,IC50,"[3]; MDA-MB-231, MTT, 48 h exposure",0.21 ± 0.02 µM
same,melting point,,199 to 201 °C
"COC(=O)[C@]1(C)CCC[C@]2(C)c3cc(Br)c4nc(-c5ccccc5F)[nH]c4c3CCC12 (stereo partly drawn) [Compound 6e, Methyl 2′-(2-fluorophenyl)-12-bromo-13,14-imidazolyl-deisopropyl-dehydroabietate]",IC50,"[1]; MTT, 48 h exposure",> 50 µM
same,IC50,"[2]; MTT, 48 h exposure",> 50 µM
same,IC50,"[3]; MDA-MB-231, MTT, 48 h exposure",> 50 µM
same,melting point,,138 to 139 °C
same,IC50,"[4]; MTT, 48 h exposure",12.3 ± 2.46 µM
"COC(=O)[C@]1(C)CCC[C@]2(C)c3cc(-c4cc(OC)c(OC)c(OC)c4)c4nc(-c5ccccc5F)[nH]c4c3CCC12 (stereo partly drawn) [Compound 7e, Methyl 2′-(2-fluorophenyl)-12-(3,4,5-trimethoxyphenyl)-13,14-imidazolyl-deisopropyl-dehydroabietate]",IC50,"[1]; MTT, 48 h exposure",18.3 ± 2.98 µM
same,IC50,"[2]; MTT, 48 h exposure",10.4 ± 1.91 µM
same,IC50,"[3]; MDA-MB-231, MTT, 48 h exposure",18.2 ± 1.32 µM
same,melting point,,155 to 157 °C
same,IC50,"[4]; MTT, 48 h exposure",> 50 µM
"COC(=O)[C@]1(C)CCC[C@]2(C)c3cc(-c4cc(OC)c(OC)c(OC)c4)c4nc(-c5ccc(C)cc5)[nH]c4c3CCC12 (stereo partly drawn) [Compound 7b, Methyl 2′-(p-tolyl)-12-(3,4,5-trimethoxyphenyl)-13,14-imidazolyl-deisopropyl-dehydroabietate]",IC50,"[1]; MTT, 48 h exposure",> 50 µM
same,IC50,"[2]; MTT, 48 h exposure",15.6 ± 1.57 µM
same,IC50,"[3]; MDA-MB-231, MTT, 48 h exposure",> 50 µM
same,melting point,,133 to 135 °C
same,IC50,"[4]; MTT, 48 h exposure",> 50 µM
"COC(=O)[C@]1(C)CCC[C@]2(C)c3cc(-c4cc(OC)c(OC)c(OC)c4)c4nc(-c5ccc6[nH]ccc6c5)[nH]c4c3CCC12 (stereo partly drawn) [Compound 7j, Methyl 2′-(1H-indol-5-yl)-12-(3,4,5-trimethoxyphenyl)-13,14-imidazolyl-deisopropyl-dehydroabietate]",IC50,[5],12.8 ± 1.27 µM
same,IC50,"[1]; MTT, 48 h exposure",3.75 ± 0.78 µM
same,IC50,"[3]; MDA-MB-231, MTT, 48 h exposure",0.83 ± 0.2 µM
same,melting point,,189 to 191 °C
"CC(C)c1ccc2c(c1)CC[C@H]1[C@](C)(C(=O)O)CCC[C@]21C [Compound 1, Dehydroabietic acid]",IC50,"[1]; MTT, 48 h exposure",> 50 µM
same,IC50,"[2]; MTT, 48 h exposure",> 50 µM
same,IC50,"[3]; MDA-MB-231, MTT, 48 h exposure",> 50 µM
same,IC50,"[4]; MTT, 48 h exposure",> 50 µM
"COC(=O)[C@]1(C)CCC[C@]2(C)c3cc(Br)c4nc(-c5ccc(Br)cc5)[nH]c4c3CCC12 (stereo partly drawn) [Compound 6h, Methyl 2′-(4-bromophenyl)-12-bromo-13,14-imidazolyl-deisopropyl-dehydroabietate]",IC50,"[1]; MTT, 48 h exposure",> 50 µM
same,IC50,"[2]; MTT, 48 h exposure",> 50 µM
same,IC50,"[3]; MDA-MB-231, MTT, 48 h exposure",35.3 ± 1.77 µM
same,melting point,,141 to 142 °C
same,IC50,"[4]; MTT, 48 h exposure",16.6 ± 1.4 µM
"COC(=O)Nc1nc2ccc(C(=O)c3cccs3)cc2[nH]1 [Nocodazole, nocodazole, reference compound]",IC50,[5],13.8 ± 1.08 µM
same,IC50,"[1]; MTT, 48 h exposure",0.87 ± 0.05 µM
same,IC50,"[2]; MTT, 48 h exposure",1.37 ± 0.11 µM
same,IC50,"[3]; MDA-MB-231, MTT, 48 h exposure",0.76 ± 0.06 µM
same,IC50,"[4]; MTT, 48 h exposure",0.92 ± 0.07 µM
"COC(=O)[C@]1(C)CCC[C@]2(C)c3cc(Br)c4nc(-c5c[nH]c6ccccc56)[nH]c4c3CCC12 (stereo partly drawn) [Compound 6k, Methyl 2′-(1H-indol-3-yl)-12-bromo-13,14-imidazolyl-deisopropyl-dehydroabietate]",IC50,[5],8.43 ± 1.06 µM
same,IC50,"[1]; MTT, 48 h exposure",0.98 ± 0.11 µM
same,IC50,"[3]; MDA-MB-231, MTT, 48 h exposure",0.56 ± 0.13 µM
same,melting point,,139 to 140 °C
COC(=O)[C@]1(C)CCC[C@]2(C)c3cc(Br)c(N)c(N)c3CCC12 (stereo partly drawn) [Compound 5],IC50,"[1]; MTT, 48 h exposure",43.4 ± 2.81 µM
same,IC50,"[2]; MTT, 48 h exposure",38.5 ± 3.79 µM
same,IC50,"[3]; MDA-MB-231, MTT, 48 h exposure",> 50 µM
same,IC50,"[4]; MTT, 48 h exposure",> 50 µM
COC(=O)[C@]1(C)CCC[C@]2(C)c3cc(Br)c(C(C)C)cc3CCC12 (stereo partly drawn) [Compound 3],IC50,"[1]; MTT, 48 h exposure",> 50 µM
same,IC50,"[2]; MTT, 48 h exposure",> 50 µM
same,IC50,"[3]; MDA-MB-231, MTT, 48 h exposure",> 50 µM
same,IC50,"[4]; MTT, 48 h exposure",> 50 µM
"COC(=O)[C@]1(C)CCC[C@]2(C)c3cc(Br)c4nc(-c5ccc(C)cc5)[nH]c4c3CCC12 (stereo partly drawn) [Compound 6b, Methyl 2′-(p-tolyl)-12-bromo-13,14-imidazolyl-deisopropyl-dehydroabietate]",IC50,"[1]; MTT, 48 h exposure",> 50 µM
same,IC50,"[2]; MTT, 48 h exposure",25.3 ± 4.96 µM
same,IC50,"[3]; MDA-MB-231, MTT, 48 h exposure",> 50 µM
same,melting point,,143 to 145 °C
same,IC50,"[4]; MTT, 48 h exposure",> 50 µM
"COC(=O)[C@]1(C)CCC[C@]2(C)c3cc(Br)c4nc(-c5ccc(Cl)cc5)[nH]c4c3CCC12 (stereo partly drawn) [Compound 6f, Methyl 2′-(4-chlorophenyl)-12-bromo-13,14-imidazolyl-deisopropyl-dehydroabietate]",IC50,"[1]; MTT, 48 h exposure",> 50 µM
same,IC50,"[2]; MTT, 48 h exposure",> 50 µM
same,IC50,"[3]; MDA-MB-231, MTT, 48 h exposure",33.7 ± 4.7 µM
same,melting point,,139 to 141 °C
same,IC50,"[4]; MTT, 48 h exposure",16.5 ± 1.87 µM
